Measured values: patent US4278595A, “Orally active MIF analogs with an effect on the central nervous system” (Vega Laboratories, Inc., priority 1979, dated 1981)
Where a SMILES comes first, the peptide text is derived from it. [ ]: non-standard residue; d: D form. pGlu = O=C1CC[C@@H](C(=O)O)N1

Tests used:
Format in all cases: in vivo, rat
[1] = test system: male Sprague-Dawley rats with unilateral 6-hydroxy-Dopamine lesion in the substantia nigra; assay: Duration of L-DOPA-reversed rotational behavior in rats with unilateral 6-hydroxy-Dopamine lesion of the substantia nigra (third series)
Protocol: The MIF analogs were tested for "Parkinsonion" locomotor behavior response by three different test procedures. In the third series of tests, male Sprague-Dawley rats received a unilateral chemical lesion (by injection of 6-hydroxy-Dopamine) in the substantia nigra, which is followed by rotational movement. When L-DOPA is given i.p. (in two doses, 13 and 26 mg/kg) the direction of rotational movement is reversed, and the duration of the reversed rotational motion was measured in minutes. The same doses of L-DOPA were then given in the experimental groups in combination with 2 mg/kg of either MIF or the MIF analogs, all i.p., or by gastric tube in a dose of 4 mg/kg, and the duration, in minutes, of reversed rotational behavior was observed.

[2] = test system: reserpinized male Long-Evans rats; assay: Locomotor activity of reserpinized rats after intraventricular administration (first series); conditions: rats reserpinized i.p. 10 mg/kg
Protocol: (§1) The MIF analogs were tested for "Parkinsonion" locomotor behavior response by three different test procedures.
In the first series of tests, male Long-Evans rats were prepared with a cannula fixed from the exterior to the lateral ventricle for direct intraventricular administration. The rats were reserpinized i.p. (10 mg/kg), and then MIF or MIF analogs, were given directly into the CSF. Activity of the rats was measured in counts/10 minutes with a digital printout activity meter (Columbus Instruments, model PB 5244, Columbus, Ohio). The results of these tests are as follows

[3] = test system: reserpinized male Long-Evans rats; assay: L-DOPA potentiation: locomotor activity of reserpinized rats given agent i.p. with Carbi-DOPA and L-DOPA (second series); conditions: 2 mg/kg i.p. with 10 mg/kg Carbi-DOPA and 100 mg/kg L-DOPA
Protocol: as §1
In the second series of tests, male Long-Evans rats prepared and reserpinized as described for the first series, were treated i.p. with 2 mg/kg of MIF or MIF analog, 10 mg/kg of Carbi-DOPA, a competitive inhibitor of DOPA-decarboxylase (to prolong the L-DOPA effect), and 100 mg/kg of L-DOPA. The control group received the latter two substances, but no MIF or MIF analog. Activity of the rats was measured, in counts/10 minutes with a digital printout activity meter, at 15, 35, 55, 75, 95 and 105 minutes after injection.

[4] = Injection: L-DOPA i.p. (13 and 26 mg/kg) alone or in combination with 2 mg/kg MIF or analog i.p.
[5] = Oral: L-DOPA i.p. (13 and 26 mg/kg) alone or in combination with 4 mg/kg MIF or analog by gastric tube
[6] = 10 ng directly into the CSF (lateral ventricle)
[7] = 100 ng directly into the CSF (lateral ventricle)

Row | SMILES | Duration of Reversed Rotational Behavior [1, 4] | Duration of Reversed Rotational Behavior [1, 5] | % Increase in Activity, Counts/10 Minutes [2, 6] | % Increase in Activity, Counts/10 Minutes [2, 7] | % Increase in Activity, counts/10 min. ([3]; 15 min. after injection) | % Increase in Activity, counts/10 min. ([3]; 35 min. after injection) | % Increase in Activity, counts/10 min. ([3]; 55 min. after injection) | % Increase in Activity, counts/10 min. ([3]; 75 min. after injection) | % Increase in Activity, counts/10 min. ([3]; 95 min. after injection) | % Increase in Activity, counts/10 min. ([3]; 105 min. after injection)
1 | N[C@@H](Cc1ccc(O)c(O)c1)C(=O)O [L-DOPA] | 38 ± 3.4 min | 38 ± 3.4 min | – | – | – | – | – | – | – | –
2 | CC(C)C[C@@H](NC(=O)[C@@H]1CCC(=O)N1)C(=O)NCC(N)=O [pGlu--D--Leu--Gly--NH2] ([pGlu]-[dL]-Gly-NH2) | 96 ± 7.9 min | 110 ± 9.3 min | 240% | 360% | 126% | 538% | 2450% | 2036% | 1035% | 478%
3 | CC(C)C[C@H](NC(=O)[C@@H]1CCCN1)C(=O)NCC(N)=O [MIF, Pro--L--Leu--Gly--NH2, reference compound] (H-Pro-Leu-Gly-NH2) | 55 ± 6.2 min | 58 ± 5.3 min | No effect | No effect | – | – | – | – | – | –
